Measurements published in patent US20210369853A1, “TARGETED PROTEASE DEGRADATION PLATFORM” (EUBULUS BIOTHERAPEUTICS INC., priority 2018, published 2021).
Where two headings read alike, the source gives them in different places.

Key:
Type in all cases: cell-based
[1] = tested on: Human cervical adenocarcinoma cells Hela; experiment: Cell proliferation experiment (Alarm blue, 72 h, EC50)
Summary of the method: (§1)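 Growth inhibition over 72 h. Cells were cultured in standard media and passaged at least twice before plating, then treated with a 5-fold compound gradient. EC50 came from Alamar blue fluorescence.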

[2] = tested on: Human Monocytic Leukemia MV4-11; experiment: as above
Summary of the method: as §1

PLK1 = biological target: T1, PLK1 (Homo sapiens, UniProt P53350); experiment: Western blot, protein degradation (DC50); conditions: 6 h, western blot; read-out: PLK1 DC50 (6 h)
T1 construct: endogenous in cells
T1 sequence (P53350 whole entry): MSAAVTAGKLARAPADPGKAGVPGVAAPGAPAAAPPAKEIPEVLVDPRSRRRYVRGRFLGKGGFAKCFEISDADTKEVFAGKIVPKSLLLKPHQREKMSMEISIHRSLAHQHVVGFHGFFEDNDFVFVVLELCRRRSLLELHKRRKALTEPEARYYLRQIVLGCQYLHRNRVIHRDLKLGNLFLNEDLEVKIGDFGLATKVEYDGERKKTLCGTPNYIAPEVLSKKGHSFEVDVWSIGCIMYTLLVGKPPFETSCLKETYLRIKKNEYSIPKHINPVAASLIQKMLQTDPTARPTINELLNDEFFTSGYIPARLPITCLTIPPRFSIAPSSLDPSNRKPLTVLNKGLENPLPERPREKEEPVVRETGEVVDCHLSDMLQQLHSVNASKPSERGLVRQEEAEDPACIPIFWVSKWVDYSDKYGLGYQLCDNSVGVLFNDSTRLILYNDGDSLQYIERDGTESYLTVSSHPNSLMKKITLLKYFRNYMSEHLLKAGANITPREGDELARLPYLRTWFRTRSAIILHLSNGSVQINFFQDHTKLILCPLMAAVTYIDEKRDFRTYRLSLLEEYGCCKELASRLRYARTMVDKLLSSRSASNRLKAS
Experimental: (§2) Cells were treated with the compound for a period of time, after that the cells were collected by centrifugation. After washing with PBS, the cells were lysed by adding RIPA buffer; the cell lysate were added to the loading buffer and then appropriate volume were taken and slowly added to the corresponding wells of the gel plate, and run the SDS-PAGE gel (4%-12%). After running the gel, transferred to the PVDF membrane and sealed with 5% skimmed milk powder at room temperature for 1 hour. The membrane was placed in the primary antibody diluted with 5% skimmed milk powder and shaked slowly overnight at 4° C. After incubation with primary antibody, the membrane was washed 3 times using a TBST shaker; added secondary antibody diluted with 5% skimmed milk powder corresponding to the primary antibody, and shaked slowly at room temperature for 1 hour. After incubation with secondary antibody, the membrane was washed 3 times using the TBST shaker again. The PVDF membrane was flatted in the cassette, the strip was evenly infiltrated with ECL developer solution, and placed in ChemDoc XRS+ gel imager for taking pictures. The intensity of protein bands was analyzed quantitatively using ImageJ software.

BRD4 = biological target: T2, BRD4 (Homo sapiens, UniProt O60885); experiment: Western blot, protein degradation (DC50); conditions: 6 h, western blot; read-out: BRD4 DC50 (6 h)
T2 construct: endogenous in cells
Experimental: as §2

[3] = Homo sapiens, MV4-11, MV4;11 cells

Row | SMILES | EC50 ([1]; Homo sapiens) [µM] | EC50 [2, 3] [µM] | DC50 (PLK1) [µM] | DC50 (BRD4) [µM] | EC50 [1] [µM] | EC50 ([2]; MV4;11 cells) [µM]
1 | CC[C@@H]1c2nncn2-c2cnc(Nc3ccc(C(=O)NCCCC(=O)Nc4cccc5c4CN(C4CCC(=O)NC4=O)C5=O)cc3OC)nc2N1C1CCCC1 (stereo partly drawn) [UB-180521] | > 1 | > 1 | – | – | – | –
2 | CC[C@@H]1c2c(C#N)ncn2-c2cnc(Nc3ccc(C(=O)NCCOCCOCCOCCC(=O)N[C@H](C(=O)N4C[C@H](O)C[C@H]4C(=O)NCc4ccc(-c5scnc5C)cc4)C(C)(C)C)cc3OC)nc2N1C1CCCC1 [UB-180529] | > 1 | 0.01 to 0.1 | > 1 | > 1 | – | –
3 | CC[C@@H]1c2nncn2-c2cnc(Nc3ccc(C(=O)NCCOCCOCCC(=O)N[C@H](C(=O)N4C[C@H](O)C[C@H]4C(=O)NCc4ccc(-c5scnc5C)cc4)C(C)(C)C)cc3OC)nc2N1C1CCCC1 [UB-180550] | > 1 | > 1 | – | – | – | –
4 | CC[C@@H]1c2c(C#N)ncn2-c2cnc(Nc3ccc(C(=O)NCCOCCOCCOCCOCC(=O)N[C@H](C(=O)N4C[C@H](O)C[C@H]4C(=O)NCc4ccc(-c5scnc5C)cc4)C(C)(C)C)cc3OC)nc2N1C1CCCC1 [UB-180525] | > 1 | 0.01 to 0.1 | > 1 | > 1 | – | –
5 | CC[C@@H]1c2c(C#N)ncn2-c2cnc(Nc3ccc(C(=O)NCCCC(=O)Nc4cccc5c4CN(C4CCC(=O)NC4=O)C5=O)cc3OC)nc2N1C1CCCC1 (stereo partly drawn) [UB-180537] | > 1 | 0.1 to 1 | – | – | – | –
6 | CC[C@@H]1c2nncn2-c2cnc(Nc3ccc(C(=O)NCCOCCOCCOCCOCC(=O)Nc4cccc5c4CN(C4CCC(=O)NC4=O)C5=O)cc3OC)nc2N1C1CCCC1 (stereo partly drawn) [UB-180561] | – | – | – | – | > 1 | > 1
7 | CC[C@@H]1c2nncn2-c2cnc(Nc3ccc(C(=O)NCCOCCOCCOCC(=O)Nc4cccc5c4CN(C4CCC(=O)NC4=O)C5=O)cc3OC)nc2N1C1CCCC1 (stereo partly drawn) [UB-180546] | > 1 | > 1 | – | – | – | –
8 | CC[C@@H]1c2nncn2-c2cnc(Nc3ccc(C(=O)NCCCC(=O)N[C@H](C(=O)N4C[C@H](O)C[C@H]4C(=O)NCc4ccc(-c5scnc5C)cc4)C(C)(C)C)cc3OC)nc2N1C1CCCC1 [UB-180539] | > 1 | 0.01 to 0.1 | – | – | – | –
9 | CC[C@@H]1c2c(C#N)ncn2-c2cnc(Nc3ccc(C(=O)NCCOCCOCCOCCOCCC(=O)Nc4cccc5c4CN(C4CCC(=O)NC4=O)C5=O)cc3OC)nc2N1C1CCCC1 (stereo partly drawn) [UB-180551] | > 1 | > 1 | – | – | – | –
10 | CC[C@@H]1c2c(C#N)ncn2-c2cnc(Nc3ccc(C(=O)NCCOCC(=O)Nc4cccc5c4CN(C4CCC(=O)NC4=O)C5=O)cc3OC)nc2N1C1CCCC1 (stereo partly drawn) [UB-180518] | > 1 | > 1 | – | – | – | –
11 | CC[C@@H]1c2nncn2-c2cnc(Nc3ccc(C(=O)NCCOCCOCCOCC(=O)N[C@H](C(=O)N4C[C@H](O)C[C@H]4C(=O)NCc4ccc(-c5scnc5C)cc4)C(C)(C)C)cc3OC)nc2N1C1CCCC1 [UB-180516] | > 1 | > 1 | – | – | – | –
12 | CC[C@@H]1c2c(C#N)ncn2-c2cnc(Nc3ccc(C(=O)NCCOCCOCCOCC(=O)N[C@H](C(=O)N4C[C@H](O)C[C@H]4C(=O)NCc4ccc(-c5scnc5C)cc4)C(C)(C)C)cc3OC)nc2N1C1CCCC1 [UB-180519] | > 1 | 0.01 to 0.1 | – | – | – | –
13 | CC[C@@H]1c2nncn2-c2cnc(Nc3ccc(C(=O)NCCOCCOCCOCCC(=O)Nc4cccc5c4CN(C4CCC(=O)NC4=O)C5=O)cc3OC)nc2N1C1CCCC1 (stereo partly drawn) [UB-180549] | > 1 | > 1 | – | – | – | –
14 | CC[C@@H]1c2c(C#N)ncn2-c2cnc(Nc3ccc(C(=O)NCCOCCOCCOCC(=O)Nc4cccc5c4CN(C4CCC(=O)NC4=O)C5=O)cc3OC)nc2N1C1CCCC1 (stereo partly drawn) [UB-180545] | > 1 | 0.1 to 1 | – | – | – | –
15 | CC[C@@H]1c2c(C#N)ncn2-c2cnc(Nc3ccc(C(=O)NCCOCC(=O)N[C@H](C(=O)N4C[C@H](O)C[C@H]4C(=O)NCc4ccc(-c5scnc5C)cc4)C(C)(C)C)cc3OC)nc2N1C1CCCC1 [UB-180544] | > 1 | 0.01 to 0.1 | – | – | – | –
16 | CC[C@@H]1c2nncn2-c2cnc(Nc3ccc(C(=O)NCCOCCOCC(=O)N[C@H](C(=O)N4C[C@H](O)C[C@H]4C(=O)NCc4ccc(-c5scnc5C)cc4)C(C)(C)C)cc3OC)nc2N1C1CCCC1 [UB-180564] | > 1 | 0.1 to 1 | – | – | – | –
17 | CC[C@@H]1c2c(C#N)ncn2-c2cnc(Nc3ccc(C(=O)NCCOCCOCCOCCOCC(=O)Nc4cccc5c4CN(C4CCC(=O)NC4=O)C5=O)cc3OC)nc2N1C1CCCC1 (stereo partly drawn) [UB-180560] | > 1 | 0.1 to 1 | – | – | – | –
18 | CC[C@@H]1c2c(C#N)ncn2-c2cnc(Nc3ccc(C(=O)NCCCOCC(=O)N[C@H](C(=O)N4C[C@H](O)C[C@H]4C(=O)NCc4ccc(-c5scnc5C)cc4)C(C)(C)C)cc3OC)nc2N1C1CCCC1 [UB-180542] | > 1 | 0.1 to 1 | – | – | – | –

Row | SMILES | EC50 ([1]; Homo sapiens) [µM] | EC50 [2, 3] [µM] | DC50 (PLK1) [µM] | DC50 (BRD4) [µM] | EC50 [1] [µM] | EC50 ([2]; MV4;11 cells) [µM]
19 | CC[C@@H]1c2c(C#N)ncn2-c2cnc(Nc3ccc(C(=O)NCCCCOCC(=O)Nc4cccc5c4CN(C4CCC(=O)NC4=O)C5=O)cc3OC)nc2N1C1CCCC1 (stereo partly drawn) [UB-180512] | > 1 | 0.1 to 1 | – | – | – | –
20 | CC[C@@H]1c2nncn2-c2cnc(Nc3ccc(C(=O)NCCOCC(=O)N[C@H](C(=O)N4C[C@H](O)C[C@H]4C(=O)NCc4ccc(-c5scnc5C)cc4)C(C)(C)C)cc3OC)nc2N1C1CCCC1 [UB-180540] | > 1 | > 1 | – | – | – | –
21 | CC[C@@H]1c2c(C#N)ncn2-c2cnc(Nc3ccc(C(=O)NCCOCCOCC(=O)N[C@H](C(=O)N4C[C@H](O)C[C@H]4C(=O)NCc4ccc(-c5scnc5C)cc4)C(C)(C)C)cc3OC)nc2N1C1CCCC1 [UB-180563] | > 1 | 0.1 to 1 | – | – | – | –
22 | CC[C@@H]1c2nncn2-c2cnc(Nc3ccc(C(=O)NCCOCCOCCC(=O)Nc4cccc5c4CN(C4CCC(=O)NC4=O)C5=O)cc3OC)nc2N1C1CCCC1 (stereo partly drawn) [UB-180547] | > 1 | > 1 | – | – | – | –
23 | CC[C@@H]1c2nncn2-c2cnc(Nc3ccc(C(=O)NCCCOCC(=O)Nc4cccc5c4CN(C4CCC(=O)NC4=O)C5=O)cc3OC)nc2N1C1CCCC1 (stereo partly drawn) [UB-180510] | > 1 | > 1 | – | – | – | –
24 | CC[C@@H]1c2nncn2-c2cnc(Nc3ccc(C(=O)NCCCCOCC(=O)N[C@H](C(=O)N4C[C@H](O)C[C@H]4C(=O)NCc4ccc(-c5scnc5C)cc4)C(C)(C)C)cc3OC)nc2N1C1CCCC1 [UB-180555] | > 1 | 0.01 to 0.1 | – | – | – | –
25 | CC[C@@H]1c2nncn2-c2cnc(Nc3ccc(C(=O)NCCOCCOCC(=O)Nc4cccc5c4CN(C4CCC(=O)NC4=O)C5=O)cc3OC)nc2N1C1CCCC1 (stereo partly drawn) [UB-180556] | > 1 | > 1 | – | – | – | –
26 | CC[C@@H]1c2c(C#N)ncn2-c2cnc(Nc3ccc(C(=O)NCCOCCOCCC(=O)Nc4cccc5c4CN(C4CCC(=O)NC4=O)C5=O)cc3OC)nc2N1C1CCCC1 (stereo partly drawn) [UB-180538] | > 1 | > 1 | – | – | – | –
27 | CC[C@@H]1c2c(C#N)ncn2-c2cnc(Nc3ccc(C(=O)NCCOCCOCC(=O)Nc4cccc5c4CN(C4CCC(=O)NC4=O)C5=O)cc3OC)nc2N1C1CCCC1 (stereo partly drawn) [UB-180557] | > 1 | 0.1 to 1 | – | – | – | –
28 | CC[C@@H]1c2nncn2-c2cnc(Nc3ccc(C(=O)NCCOCCOCCOCCOCCC(=O)Nc4cccc5c4CN(C4CCC(=O)NC4=O)C5=O)cc3OC)nc2N1C1CCCC1 (stereo partly drawn) [UB-180562] | > 1 | > 1 | – | – | – | –
29 | CC[C@@H]1c2nncn2-c2cnc(Nc3ccc(C(=O)NCCOCCOCCOCCOCCC(=O)N[C@H](C(=O)N4C[C@H](O)C[C@H]4C(=O)NCc4ccc(-c5scnc5C)cc4)C(C)(C)C)cc3OC)nc2N1C1CCCC1 [UB-180553] | > 1 | 0.1 to 1 | – | – | – | –
30 | CC[C@@H]1c2nncn2-c2cnc(Nc3ccc(C(=O)NCCOCCOCCOCCC(=O)N[C@H](C(=O)N4C[C@H](O)C[C@H]4C(=O)NCc4ccc(-c5scnc5C)cc4)C(C)(C)C)cc3OC)nc2N1C1CCCC1 [UB-180522] | > 1 | 0.1 to 1 | – | – | – | –
31 | CC[C@@H]1c2c(C#N)ncn2-c2cnc(Nc3ccc(C(=O)NCCCC(=O)N[C@H](C(=O)N4C[C@H](O)C[C@H]4C(=O)NCc4ccc(-c5scnc5C)cc4)C(C)(C)C)cc3OC)nc2N1C1CCCC1 [UB-180543] | > 1 | 0.01 to 0.1 | – | – | – | –
32 | CC[C@@H]1c2nncn2-c2cnc(Nc3ccc(C(=O)NCCCCOCC(=O)Nc4cccc5c4CN(C4CCC(=O)NC4=O)C5=O)cc3OC)nc2N1C1CCCC1 (stereo partly drawn) [UB-180524] | > 1 | 0.01 to 0.1 | – | – | – | –
33 | CC[C@@H]1c2c(C#N)ncn2-c2cnc(Nc3ccc(C(=O)NCCOCCOCCOCCC(=O)Nc4cccc5c4CN(C4CCC(=O)NC4=O)C5=O)cc3OC)nc2N1C1CCCC1 (stereo partly drawn) [UB-180548] | > 1 | > 1 | – | – | – | –
34 | CC[C@@H]1c2nncn2-c2cnc(Nc3ccc(C(=O)NCCOCCOCCOCCOCC(=O)N[C@H](C(=O)N4C[C@H](O)C[C@H]4C(=O)NCc4ccc(-c5scnc5C)cc4)C(C)(C)C)cc3OC)nc2N1C1CCCC1 [UB-180523] | > 1 | 0.01 to 0.1 | > 1 | > 1 | – | –
35 | CC[C@@H]1c2nncn2-c2cnc(Nc3ccc(C(=O)NCCCOCC(=O)N[C@H](C(=O)N4C[C@H](O)C[C@H]4C(=O)NCc4ccc(-c5scnc5C)cc4)C(C)(C)C)cc3OC)nc2N1C1CCCC1 [UB-180541] | > 1 | 0.1 to 1 | – | – | – | –
36 | CC[C@@H]1c2c(C#N)ncn2-c2cnc(Nc3ccc(C(=O)NCCOCCOCCOCCOCCC(=O)N[C@H](C(=O)N4C[C@H](O)C[C@H]4C(=O)NCc4ccc(-c5scnc5C)cc4)C(C)(C)C)cc3OC)nc2N1C1CCCC1 [UB-180552] | > 1 | 0.1 to 1 | – | – | – | –
